Laboratory results taken from patent US11840528B2 (Hoffmann-La Roche Inc., priority 2018, dated 2023).

Tests used:
h-GABA-A α5β3γ2 [1] = biological target: T1, h-GABA-A α5β3γ2 (Homo sapiens, UniProt P18507+P31644); assay: [3H]flumazenil competition binding assay, membranes of HEK293 cells expressing GABAA receptors; conditions: displacement of [3H]-Flumazenil 0.5 nM, HEK293 cells expressing human receptors, mean of two determinations; Table 1
Summary of the method: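 Receptor source: human α5β3γ2 transiently transfected into HEK293 cells, membranes in pH 7.5 Krebs-tris. Filtration through GF/C, then scintillation counting.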

h-GABA-A α5β3γ2 [2] = biological target: T1, h-GABA-A α5β3γ2; assay: Two-electrode voltage clamp electrophysiology in Xenopus laevis oocytes expressing GABAA receptors, modulation of GABA EC20 current; assay type: cell-based; design: host or cells: Xenopus laevis oocytes micro-injected with RNA transcripts of the subunits; conditions: Table 1; for Efficacy (GABA) %: % modulation of GABA EC20 = 100*(Fold increase-1); for Fold increase h-GABA-A α5β3γ2 oocyte: test compound at approx. 30 fold its Ki, GABA at EC20
Summary of the method: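 Modulation is reported as % of the GABA EC20 current, calculated as 100*(Fold increase−1) from the peak ratio between a second GABA response carrying compound (applied at roughly 30-fold Ki) and a preceding control response. Oocytes expressing human α5β3γ2 were clamped at −80 mV at room temperature, 3–5 days after injection.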

SMILES	Ki (h-GABA-A α5β3γ2 [1])	Efficacy (GABA) % (h-GABA-A α5β3γ2 [2])	Fold increase h-GABA-A α5β3γ2 oocyte (h-GABA-A α5β3γ2 [2])
CCOC1CN(c2cnn(Cc3c(-c4ccc(C)nn4)noc3CF)c(=O)c2)C1 [Example 279, 5-(3-ethoxyazetidin-1-yl)-2-((5-(fluoromethyl)-3-(6-methylpyridazin-3-yl)isoxazol-4-yl)methyl)pyridazin-3(2H)-one]	8.6 nM	87%	1.87
COC1CN(c2cnn(Cc3c(-c4ncc(C(F)(F)F)cn4)noc3C)c(=O)c2)C1 [Example 229, 5-(3-methoxyazetidin-1-yl)-2-((5-methyl-3-(5-(trifluoromethyl)pyrimidin-2-yl)isoxazol-4-yl)methyl)pyridazin-3(2H)-one]	10 nM	81%	1.81
COc1ccc(-c2cnn(Cc3c(-c4ccc(C)nc4)noc3C)c(=O)c2)cc1OC [Example 113, 5-(3,4-dimethoxyphenyl)-2-((5-methyl-3-(6-methyl-3-pyridyl)isoxazol-4-yl)methyl)pyridazin-3-one]	7.8 nM	91%	1.91
Cc1ccc(-c2noc(C)c2Cn2ncc(N3CC4(CCC(C(F)(F)F)CO4)C3)cc2=O)nn1 (single isomer, unassigned) [Example 321]	6.3 nM	129%	2.29
Cc1ccc(-c2noc(C)c2Cn2ncc(-c3ccnc(C)c3)cc2=O)cn1 [Example 106, 2-((5-methyl-3-(6-methylpyridin-3-yl)isoxazol-4-yl)methyl)-5-(2-methylpyridin-4-yl)pyridazin-3(2H)-one]	6.2 nM	136%	2.36
CCn1cc(-c2cnn(Cc3c(-c4ccc(C)nc4)noc3C)c(=O)c2)cn1 [Example 155, 5-(1-ethyl-1H-pyrazol-4-yl)-2-((5-methyl-3-(6-methylpyridin-3-yl)isoxazol-4-yl)methyl)pyridazin-3(2H)-one]	21.6 nM	133%	2.33
Cc1ccc(-c2noc(C)c2Cn2ncc(N3CC[C@@H](OC(C)(C)C)C3)cc2=O)cn1 [Example 90, 5-[(3R)-3-tert-butoxypyrrolidin-1-yl]-2-[[5-methyl-3-(6-methyl-3-pyridyl)isoxazol-4-yl]methyl]pyridazin-3-one]	24.8 nM	109%	2.09

Second part, the compound after the results:

Ki (h-GABA-A α5β3γ2 [1])	Efficacy (GABA) % (h-GABA-A α5β3γ2 [2])	Fold increase h-GABA-A α5β3γ2 oocyte (h-GABA-A α5β3γ2 [2])	SMILES
18.1 nM	134%	2.34	Cc1ccc(-c2noc(C)c2Cn2ncc(N3CC(C#N)C3)cc2=O)cn1 [Example 85, 1-[1-[[5-methyl-3-(6-methyl-3-pyridyl)isoxazol-4-yl]methyl]-6-oxo-pyridazin-4-yl]azetidine-3-carbonitrile]
7.3 nM	172%	2.72	Cc1ccc(-c2noc(C)c2Cn2ncc(N3CC[C@H](C(C)(C)O)C3)cc2=O)cn1 [Example 120, 5-((3S)-3-(2-hydroxypropan-2-yl)pyrrolidin-1-yl)-2-((5-methyl-3-(6-methylpyridin-3-yl)-1,2-oxazol-4-yl)methyl)pyridazin-3-one]
10.8 nM	175%	2.75	Cc1ccc(-c2noc(C)c2Cn2ncc(N3CCC(n4c(C)nnc4C)CC3)cc2=O)cn1 [Example 54, 5-[4-(3,5-dimethyl-1,2,4-triazol-4-yl)-1-piperidyl]-2-[[5-methyl-3-(6-methyl-3-pyridyl)isoxazol-4-yl]methyl]pyridazin-3-one]
17.2 nM	118%	2.18	Cc1ccc(-c2noc(C)c2Cn2ncc(N3CC4(CCCCC4)C3)cc2=O)cn1 [Example 195]
25.8 nM	155%	2.55	Cc1onc(-c2ccc(Cl)nc2)c1Cn1ncc(N2CC(OC(C)C(F)(F)F)C2)cc1=O (single isomer, unassigned) [Example 265]
